Data on 1 compound can be found in patent US20250009751A1, “FORMULATIONS OF ANTIVIRAL COMPOUNDS” (Merck Sharp & Dohme LLC, priority 2018, published 2025).

The data set in a line: pH-dependent solubility of Compound A. In kind it is physicochemical. To be noted: particularly between pH 1-4.

The structures appear in SMILES notation.

As to `COC(=O)N[C@H](C(=O)N1CCC[C@H]1c1ncc(-c2cc(F)c3c(c2)O[C@@H](c2cnc(C4CC4)s2)n2c-3cc3cc(-c4cnc([C@@H]5CCCN5C(=O)[C@@H](NC(=O)OC)C(C)C)[nH]4)ccc32)[nH]1)C(C)C` [Compound A, dimethyl ((2S,2′S)-((2S,2′S)-2,2′-(5,5′-((S)-6-(2-cyclopropylthiazol-5-yl)-1-fluoro-6H-benzo[5,6][1,3]oxazino[3,4-a]indole-3,10-diyl)bis(1H-imidazole-5,2-diyl))bis(pyrrolidine-2,1-diyl))bis(3-methyl-1-oxobutane-2,1-diyl))dicarbamate], the solubility profile result is given as “sharp pH-dependent solubility profile”.
